Target: T1, Dimer of Gag-Pol polyprotein [489-587,Q496K] (Human immunodeficiency virus 1, UniProt P12497, Q496K)
T1 construct: 489-587
Assay: Protease Inhibition Assay
Conditions: pH 5.5; 30 °C
Protocol: Assay of HIV protease inhibition was performed by peptide cleavage using the substrate Val-Ser-Gln-Asn-beta-naphthylalanine*Pro-Ile-Val. Products of the cleavage reaction were quantified by HPLC detection, and data were fit to nonlinear least squares equations for determination of steady-state Michaelis-Menten kinetics.

O=C(N[C@H]1c2ccccc2OC[C@H]1O)[C@H](Cc1cccnc1)C[C@H](O)CN1CCN(Cc2ccc(-c3ccccc3)o2)C[C@H]1C(=O)NCC(F)(F)F [(2S)-1-[(2S,4R)-2-hydroxy-4-{[(3S,4S)-3-hydroxy-3,4-dihydro-2H-1-benzopyran-4-yl]carbamoyl}-4-(pyridin-3-ylmethyl)butyl]-4-[(5-phenylfuran-2-yl)methyl]-N-(2,2,2-trifluoroethyl)piperazine-2-carboxamide]
IC50: 0.02 nM

Reference: BindingDB's records for doi:10.1016/j.bmcl.2003.08.049 (Merck Research Laboratories, 2003)
